Reference: patent US8748423B2, “Compositions and methods for the prevention and treatment of cancer” (Kinex Pharmaceuticals, LLC, priority 2010, dated 2014)
Each block holds one compound with its values, some of them ahead of it.

Assays:
[1] = system: lung cancer cell line H460; test: standard tumor growth inhibition assay, H460; type: cell-based; settings: Homo sapiens, NCI-H460, read-out: GI50 (H460)
Method: (§1) These GI50's were determined using the standard tumor growth inhibition assays, similar to that described in detail for the HT29 cell line above, and the following cell lines: colon tumor cell lines KM12, lung cancer cell line H460 and lung cancer cell line A549 (all are NCI standard tumor cell lines).

[2] = system: colon tumor cell lines KM12; test: standard tumor growth inhibition assay, KM12; type: cell-based; settings: Homo sapiens, KM12, read-out: GI50 (KM12)
Method: as §1

c-Src 3T3 cells = test: BrdU cell growth inhibition assay, c-Src 3T3; type: cell-based, mouse
Method: (§2) The GI50s for several of the compounds of the invention were assayed as described herein.
The c-Src 3T3 is a mouse fibroblast NIH 3T3 normal cell line that has been transfected with a point-mutant of human c-Src wherein tyrosine 527 has been converted to a phenylalanine. This mutation results in “constitutively active” c-Src because phosphorylation on tyrosine 527 results in auto-inhibition of Src by having it fold back on its own SH2 domain. With a Phe there, this phosphorylation can't occur and therefore auto-inhibition can't occur. Thus, the always fully active mutant Src then converts the normal mouse fibroblasts into rapidly growing tumor cells. […]
In the BrdU Assay for cell growth inhibition, quantitation of cell proliferation was based on the measurement of BrdU incorporation during DNA synthesis. […]
The growth inhibition (GI) is determined from the formula GI=(T0−Tn×100/T0−CONn) where T0 is the BrdU growth of untreated cells at time “0”, Tn is the BrdU growth of treated cells at day “n” and CONn is the control BrdU growth of control cells at day “n”. […]
Seeded 96 well plates were allowed to attach overnight for 18-24 hours, either at 37° C. and 5% CO2 for HT-29 or at 37° C. and 10% CO2 for c-Src 3T3. Approx 18-24 hours after seeding, the initial growth of cells (T0) was determined for untreated cells using the BrdU assay. […]

GL261 = test: brain tumor cell line growth inhibition, GL261; type: cell-based; settings: GL261, mouse glioblastoma
Method: (§3) These GI50s were determined using standard tumor growth inhibition assays.

[3] = body weight in GL261 glioma survival study; type: in vivo, C57BL/6 mice
Method: (§4) The studies were conducted in C57BL/6 mice. GL261 glioma cells (1×10^5 in 5 μl DMEM) were implanted intracranial coordinates: bregma, lateral 2.0 mm, anterior 1.2 mm, 3.0 mm depth dura. Treatment was initiated 3 days post implantation.
FIGS. 2A-F show the weight gain in each of the C57BL/6 mice in the different treatment groups. The average weight at endpoint for each of the treatment groups is shown below in Table 12. FIG. 3 is a graph showing the average weights over a 40-day period for each of the treatment groups.

SW1088 = test: brain tumor cell line growth inhibition, SW1088; type: cell-based; settings: Homo sapiens; SW1088, astrocytoma
Method: as §3

U87 = test: brain tumor cell line growth inhibition, U87; type: cell-based; settings: Homo sapiens, U-87 MG; U87, glioblastoma; astrocytoma
Method: as §3

Daoy = test: brain tumor cell line growth inhibition, Daoy; type: cell-based; settings: Homo sapiens, desmoplastic cerebellar medulloblastoma
Method: as §3

SK-N-MC = test: brain tumor cell line growth inhibition, SK-N-MC; type: cell-based; settings: Homo sapiens, neuroepithelioma
Method: as §3

SK-N-FI = test: brain tumor cell line growth inhibition, SK-N-FI; type: cell-based; settings: Homo sapiens, neuroblastoma
Method: as §3

LN-18 = test: brain tumor cell line growth inhibition, LN-18; type: cell-based; settings: Homo sapiens; LN-18, glioblastoma; glioma
Method: as §3

HT29 cell line = test: BrdU cell growth inhibition assay, HT-29; type: cell-based; settings: Homo sapiens
Method: as §2
The HT29 cell line is a NCI standard human colon carcinoma cell line. […] HT29 cells were routinely cultured in McCoy's 5A medium supplemented with Fetal Bovine Serum (1.5% v/v) and L-glutamine (2 mM).
In the BrdU Assay for cell growth inhibition, quantitation of cell proliferation was based on the measurement of BrdU incorporation during DNA synthesis. The Cell Proliferation ELISA BrdU assay kit (colorimetric) was obtained from Roche Applied Science and performed as per vendor instructions.
The growth inhibition (GI) is determined from the formula GI=(T0−Tn×100/T0−CONn) where T0 is the BrdU growth of untreated cells at time “0”, Tn is the BrdU growth of treated cells at day “n” and CONn is the control BrdU growth of control cells at day “n”. The GI50 was extrapolated and the data plotted using XL-Fit 4.0 software.
For 96 well culture plate experiments, c-Src 3T3 medium was supplemented with 10 mM HEPES buffer. […]
Seeded 96 well plates were allowed to attach overnight for 18-24 hours, either at 37° C. and 5% CO2 for HT-29 or at 37° C. and 10% CO2 for c-Src 3T3. Approx 18-24 hours after seeding, the initial growth of cells (T0) was determined for untreated cells using the BrdU assay. […] Plates were assayed for BrdU and the data analyzed as above for GI50. […]

GL261 glioma = test: intracranial GL261 glioma survival study; type: in vivo, C57BL/6 mice; settings: 5 mg/kg weekly oral
Method: as §4
The median survival range and the log-rank (Mantel-Cox) statistical test results comparing the survival distributions of the samples.

SMILES: O=C(Cc1ccc(-c2ccccc2)cc1)NCc1cccc(F)c1 [Compound 2]
GI50 [1]: 890 nM
GI50 [2]: 410 nM

SMILES: O=C(Cc1ccc(-c2ccc(OCCN3CCOCC3)cc2)cn1)NCc1cccc(F)c1 [Compound 38]
GI50 (c-Src 3T3) (c-Src 3T3 cells): inactive

IC50 (GL261): 13.7 nM
IC50 (SW1088): 76.1 nM
IC50 (U87): 33.1 nM
IC50 (Daoy): 13.6 nM
IC50 (SK-N-MC): 5.8 nM
IC50 (SK-N-FI): 1.7 nM
IC50 (LN-18): 14.5 nM
SMILES: O=C(Cc1ccc(-c2ccc(OCCN3CCOCC3)cc2)cn1)NCc1ccccc1 [Compound 134, 2-(5-(4-(2-morpholinoethoxy)phenyl)pyridin-2-yl)-N-benzylacetamide]
Average weight at endpoint ([3]; 5 mg/kg (Compound 134, bid)): 14.3 g

GI50 (HT29 cell line): 26 nM
SMILES: CN1CCN(CCOc2ccc(-c3ccc(CC(=O)NCc4cccc(F)c4)nc3)c(F)c2)CC1 [Compound 137]

SMILES: Cn1nnc2c(C(N)=O)ncn2c1=O [Temodar ®, reference compound]
Average weight at endpoint ([3]; 5 mg/kg (Temodar, once weekly)): 13.3 g
Median survival (GL261 glioma): 29
survival Range (GL261 glioma): 26-29
